# How the values were obtained:
# SARS-CoV-2 virus = test: Antiviral potentiality against SARS-CoV-2; type: cell-based; settings: isolate of SARS-CoV-2
# [1] = test system: plasma C-Reactive Protein (CRP) and procalcitonin; settings: ref [7], [8], [9]; cited from earlier work
structure (smiles),measurement,setting,value
"N[C@@H](CC(=O)N1CCn2c(nnc2C(F)(F)F)C1)Cc1cc(F)c(F)cc1F [SIT, Sitagliptin]",antiviral activity against SARS-CoV-2 in words,SARS-CoV-2 virus,have antiviral activity against an isolate of SARS-CoV-2
same,possible immuno-modulatory effect: plasma CRP and procalcitonin,[1],plasma C-Reactive Protein (CRP) and procalcitonin reduction

# Reference: PMC8349443 (Journal of the Indian Chemical Society, 2021)
